Results published in patent US5840697A, “Peptide inhibitors of calmodulin” (Torrey Pines Institute for Molecular Studies, priority 1996, dated 1998).
Read-outs that look alike come from different tables or passages of the source. Square brackets hold non-standard residues; d marks the D form. Peptide text beside a SMILES is read from it.

How the values were obtained:
[1] = molecular target: calmodulin (Homo sapiens, UniProt P0DP23); test: calcium-dependent phosphodiesterase assay (calmodulin activity); format: biochemical; conditions: for SPECIFICITY: comparison of IC50 for phosphodiesterase with IC50 for calmodulin; for calmodulin inhibitory activity, in words: (L)-amino acid peptides of Table II
Method: In the calcium dependent phosphodiesterase assay, calmodulin can be assayed by its ability to stimulate phosphodiesterase activity as determined by a two-step assay procedure illustrated by reactions (1) and (2) below. [drawing 1]
During the first step of the assay cyclic adenosine 3'5'-monophosphate (cAMP) is incubated with calcium-activated phosphodiesterase (Cal-PDE), which hydrolyses the 3'bond producing adenosine 5'-monophosphate (5'-AMP). During the second step, 5'-AMP is quantitatively converted into adenosine and inorganic phosphate (Pi) through the action of a 5-nucleotidase. The reaction is followed by the measurement of the Pi formed by reading the absorbance at 660 nm after reacting with ammonium molybdate. The amount of Pi formed is directly related to the phosphodiesterase activity which depends on the level of activation by calmodulin.
To sample assay tubes were added the following components: assay buffer, 25 ul; CaCl2, 5 ul; 5'-nucleotidase, 7.5 ul (stock solution is 10 units/ml); calmodulin 5 units; calmodulin inhibitor peptides to obtain the desired final concentration of 50 μM. The volume was then made up to 200 ul with water. Control blanks were prepared replacing the peptides with water. The added components were thoroughly mixed and the tubes incubated at 30° C. for 10 min. […] The samples were centrifuged to remove the protein precipitate and the 50 ul of the supernatant was withdrawn for phosphate measurement. […] The absorbance of the solution were read at 660 nm using water as a blank, identified as control "Calmo."
The two controls used in the assay, one without and one with calmodulin, as indicated in FIG. 1 and Table I were as follows,: (1) PDE:
These three controls were used in the calcium-dependent phosphodiesterase assay for reproducibility of the assay.
In addition to the calcium-dependent phosphodiesterase assay data, IC50 values were determined for many of the peptides. The assay carried out for the determination in the IC50 values differed from the above screening assay by the concentration of the peptides being tested.
(3) TFP: trifluoperazine; and (4) Calmidasolium: (1-[bis-(4-chlorophenyl)methyl]-3[-2-(2,4-dichlorophenyl)-2[(2,4-dichlorophenyl)methoxy]-ethyl]-1H-imidazolium chloride. The IC50 values were calculated using sigmoidal curve software (Graphpad, ISI; San Diego, Calif.) using the % inhibition at different mixture concentrations (see protocol for determination of % inhibition).
The (L)-amino acid counterpart for five (5) of the all (D)-amino acid peptides identified from the PS-SCL were synthesized in order to study the stereoselectivity of the inhibition.

[2] = molecular target: phosphodiesterase; test: calcium-dependent phosphodiesterase assay in the absence of calmodulin; format: biochemical; conditions: Table III
Method: To sample assay tubes were added the following components: assay buffer, 25 ul; CaCl2, 5 ul; 5'-nucleotidase, 7.5 ul (stock solution is 10 units/ml); calmodulin 5 units; calmodulin inhibitor peptides to obtain the desired final concentration of 50 μM. The volume was then made up to 200 ul with water. Control blanks were prepared replacing the peptides with water. The added components were thoroughly mixed and the tubes incubated at 30° C. for 10 min. Then, 25 ul of cAMP at 10.8 mM was added and incubated for 90 min at 30° C. The reaction was stopped by the addition of 50 ul of 55% trichloroacetic acid (TCA). The samples were centrifuged to remove the protein precipitate and the 50 ul of the supernatant was withdrawn for phosphate measurement. To the supernatant aliquot, 50 ul ammonium molybdate (0.55% in 1.1 N sulfuric acid) was added, followed by the addition of 5 ul of reducing agent (24 g sodium bisulfite, 2.4 g sodium sulfite, 0.5 g of 1-amino-2-naphthol-4-sulfonic acid in 200 ml of water), and the contents were mixed by vortexing. The absorbance of the solution were read at 660 nm using water as a blank, identified as control "Calmo."
As described above, one of the undesirable biological effects of existing calmodulin inhibitors is their non-specific binding to other proteins and the like. Therefore, the specificity of the instant inhibitory peptides for calmodulin was examined. The specificity was determined using the calcium-dependent phosphodiesterase assay described in Example I. The assay was carried out for the determination of IC50 values in the presence of calmodulin (IC50 value for calmodulin) and in the absence of calmodulin (IC50 for phosphodiesterase), the latter of which provides the effect of the inhibitory peptides on the phosphodiesterase.

[3] = tested on: NRK cells; test: long term stability: number of NRK cells at 48 hr after activation; format: cell-based, rat; conditions: added at 5 hr, counted 48 hr after activation
Source text: The similar activity found for the (L)-amino acid peptides and (D)-amino acid peptides indicate that the inhibition of calmodulin occurs rapidly following the addition of the inhibitory peptides. The peptides' long term stability was then studied by adding Ac-(D)Leu-(D)Trp-(D)Arg-(D)Ile-(D)Leu-(D)Trp-NH2, Ac-Leu-Trp-Arg-Ile-Leu-Trp-NH2 (SEQ ID No. 48), W13 and W12 at 5 hr following the reentry of the NRK cells into the cell cycle and measuring the number of cells at 48 hr after activation.

[4] = Table I, assayed at 75, 50 and 12.5 μM, average of repeated assays, read-out: Average IC50
[5] = Table III, in the presence of calmodulin, read-out: IC50 (μM) for calmodulin
[6] = Table II, (L)-amino acid peptides, concentrations 0.2 to 50.0 μM, read-out: IC50

SMILES | IC50 [1, 4] | IC50 [1, 5] | SPECIFICITY [1] | IC50 [2] | IC50 (μM) for phosphodiesterase [2] | IC50 [1, 6] | calmodulin inhibitory activity, in words [1] | number of cells relative to control cells [3]
CC[C@@H](C)[C@@H](NC(=O)[C@@H](CCC(N)=O)NC(=O)[C@@H](CC(C)C)NC(C)=O)C(=O)N[C@@H](C(=O)N[C@H](CC(C)C)C(=O)N[C@H](Cc1c[nH]c2ccccc12)C(N)=O)[C@H](C)CC [Ac-(D)Leu-(D)Gln-(D)Ile-(D)Ile-(D)Leu-(D)Trp-NH2] (Ac-[dL][dQ][dI][dI][dL][dW]-NH2) | 27 µM | 25 µM | 4.8 | 119 µM |  |  |  | 
CC(=O)N[C@H](CC(C)C)C(=O)N[C@H](Cc1c[nH]c2ccccc12)C(=O)N[C@H](CCCNC(=N)N)C(=O)N[C@H](Cc1c[nH]cn1)C(=O)N[C@H](Cc1c[nH]cn1)C(=O)N[C@H](Cc1c[nH]c2ccccc12)C(N)=O [Ac-(D)Leu-(D)Trp-(D)Arg-(D)His-(D)His-(D)Trp-NH2] (Ac-[dL][dW][dR][dH][dH][dW]-NH2) | 1.1 µM |  | 100 | 112 µM |  |  |  | 
CC(=O)N[C@H](CC(C)C)C(=O)N[C@H](Cc1c[nH]c2ccccc12)C(=O)N[C@H](CCCNC(=N)N)C(=O)N[C@H](Cc1c[nH]cn1)C(=O)N[C@H](CC(C)C)C(=O)N[C@H](Cc1c[nH]c2ccccc12)C(N)=O [Ac-(D)Leu-(D)Trp-(D)Arg-(D)His-(D)Leu-(D)Trp-NH2] (Ac-[dL][dW][dR][dH][dL][dW]-NH2) | 5.9 µM | 6.7 µM | 10 | 68 µM |  |  |  | 
CC[C@@H](C)[C@@H](NC(=O)[C@@H](CCCNC(=N)N)NC(=O)[C@@H](Cc1c[nH]c2ccccc12)NC(=O)[C@@H](CC(C)C)NC(C)=O)C(=O)N[C@H](Cc1c[nH]cn1)C(=O)N[C@H](Cc1c[nH]c2ccccc12)C(N)=O [Ac-(D)Leu-(D)Trp-(D)Arg-(D)Ile-(D)His-(D)Trp-NH2] (Ac-[dL][dW][dR][dI][dH][dW]-NH2) | 0.96 µM | 1.2 µM | 69 | 84 µM |  |  |  | 
CC[C@@H](C)[C@@H](NC(=O)[C@@H](CCCNC(=N)N)NC(=O)[C@@H](Cc1c[nH]c2ccccc12)NC(=O)[C@@H](CC(C)C)NC(C)=O)C(=O)N[C@H](CC(C)C)C(=O)N[C@H](CCCNC(=N)N)C(N)=O [Ac-(D)Leu-(D)Trp-(D)Arg-(D)Ile-(D)Leu-(D)Arg-NH2] (Ac-[dL][dW][dR][dI][dL][dR]-NH2) | 3.9 µM | 4.8 µM | > 42 | > 200 µM |  |  |  | 
CC[C@@H](C)[C@@H](NC(=O)[C@@H](Cc1c[nH]c2ccccc12)NC(=O)[C@@H](CC(C)C)NC(C)=O)C(=O)N[C@H](Cc1c[nH]cn1)C(=O)N[C@H](Cc1c[nH]cn1)C(=O)N[C@H](Cc1c[nH]c2ccccc12)C(N)=O [Ac-(D)Leu-(D)Trp-(D)Ile-(D)His-(D)His-(D)Trp-NH2] (Ac-[dL][dW][dI][dH][dH][dW]-NH2) | 8.5 µM | 12 µM | 2.4 | 30 µM |  |  |  | 
CC[C@@H](C)[C@@H](NC(=O)[C@@H](Cc1c[nH]c2ccccc12)NC(=O)[C@@H](CC(C)C)NC(C)=O)C(=O)N[C@H](Cc1c[nH]cn1)C(=O)N[C@H](CC(C)C)C(=O)N[C@H](Cc1c[nH]c2ccccc12)C(N)=O [Ac-(D)Leu-(D)Trp-(D)Ile-(D)His-(D)Leu-(D)Trp-NH2] (Ac-[dL][dW][dI][dH][dL][dW]-NH2) | 3.6 µM |  | 12 | 42 µM |  |  |  | 
CC[C@@H](C)[C@@H](NC(=O)[C@@H](Cc1c[nH]c2ccccc12)NC(=O)[C@@H](CC(C)C)NC(C)=O)C(=O)N[C@@H](C(=O)N[C@H](CC(C)C)C(=O)N[C@H](Cc1c[nH]c2ccccc12)C(N)=O)[C@H](C)CC [Ac-(D)Leu-(D)Trp-(D)Ile-(D)Ile-(D)Leu-(D)Trp-NH2] (Ac-[dL][dW][dI][dI][dL][dW]-NH2) | 36 µM | 29 µM |  |  | activation |  |  | 
CC[C@H](C)[C@H](NC(=O)[C@H](CCC(N)=O)NC(=O)[C@H](CC(C)C)NC(C)=O)C(=O)N[C@@H](Cc1c[nH]cn1)C(=O)N[C@@H](CC(C)C)C(=O)N[C@@H](CCCNC(=N)N)C(N)=O [Ac-Leu-Gln-Ile-His-Leu-Arg-NH2] (Ac-LQIHLR-NH2) |  |  |  |  |  | 87 µM |  | 
CC(=O)N[C@@H](CC(C)C)C(=O)N[C@@H](Cc1c[nH]c2ccccc12)C(=O)N[C@@H](CCCNC(=N)N)C(=O)N[C@@H](Cc1c[nH]cn1)C(=O)N[C@@H](Cc1c[nH]cn1)C(=O)N[C@@H](Cc1c[nH]c2ccccc12)C(N)=O [Ac-Leu-Trp-Arg-His-His-Trp-NH2] (Ac-LWRHHW-NH2) |  |  |  |  |  | 1.16 µM | especially high activity | 
CC(=O)N[C@@H](CC(C)C)C(=O)N[C@@H](Cc1c[nH]c2ccccc12)C(=O)N[C@@H](CCCNC(=N)N)C(=O)N[C@@H](Cc1c[nH]cn1)C(=O)N[C@@H](CC(C)C)C(=O)N[C@@H](Cc1c[nH]c2ccccc12)C(N)=O [Ac-Leu-Trp-Arg-His-Leu-Trp-NH2] (Ac-LWRHLW-NH2) |  | 1.1 µM | > 182 | > 200 µM |  | 1.15 µM | especially high activity | 
CC[C@H](C)[C@H](NC(=O)[C@H](CCCNC(=N)N)NC(=O)[C@H](Cc1c[nH]c2ccccc12)NC(=O)[C@H](CC(C)C)NC(C)=O)C(=O)N[C@@H](CC(C)C)C(=O)N[C@@H](CCCNC(=N)N)C(N)=O [Ac-Leu-Trp-Arg-Ile-Leu-Arg-NH2] (Ac-LWRILR-NH2) |  |  | > 69 | > 200 µM |  | 2.89 µM | especially high activity | 
CC[C@H](C)[C@H](NC(=O)[C@H](CCCNC(=N)N)NC(=O)[C@H](Cc1c[nH]c2ccccc12)NC(=O)[C@H](CC(C)C)NC(C)=O)C(=O)N[C@@H](CC(C)C)C(=O)N[C@@H](Cc1c[nH]c2ccccc12)C(N)=O [Ac-Leu-Trp-Arg-Ile-Leu-Trp-NH2] (Ac-LWRILW-NH2) |  |  | > 227 | > 200 µM |  | 0.88 µM | especially high activity | the same number of cells
Clc1ccc(C(c2ccc(Cl)cc2)n2cc[n+](CC(OCc3ccc(Cl)cc3Cl)c3ccc(Cl)cc3Cl)c2)cc1 (centres unmarked) [Calmidazolium, (1-[bis-(4-chlorophenyl)methyl]-3[-2-(2,4-dichlorophenyl)-2[(2,4-dichlorophenyl)methoxy]-ethyl]-1H-imidazolium chloride, reference compound] | 9 µM |  |  |  |  |  |  | 
